Data on 19 compounds can be found in patent US9676727B2, “Myxovirus therapeutics, compounds, and uses related thereto” (priority 2011, dated 2017).

Like-named read-outs stand apart in the source and are kept apart here.

One data set relates to MV-Alaska. Briefly: Viral CPE-reduction assay (MeV-Alaska in Vero-SLAM cells, crystal violet). It is filed as cell-based, Measles virus (MeV). The procedure:
Methods for evaluating viral activity are provided for in Yoon et al., J Biomol Screen., 2008, 13(7): 591-608 and Krumm et al., PLoS ONE, 2011, 6(5), e20069, both hereby incorporated by reference in their entirety. In certain instances, Vero-SLAM cells were infected with MeV-Alaska in four replicates per compound concentration in a 96-well plate format at an MOI of 0.4 pfu/cell in the presence of the inhibitor. At 96 hours post-infection, cell monolayers were subjected to crystal violet staining (0.1% crystal violet in 20% ethanol), and the absorbance of dried plates at 560 nm determined. Virus-induced cytopathicity was then calculated according to the formula [% rel. CPE=100-(experimental-minimum)/(maximum-minimum)*100], with minimum referring to infected, vehicle-treated wells and maximum to mock-infected wells.

Data set [1] is described as follows: Aqueous solubility by nephelometry. It is filed as physicochemical. The note with it: Nephelometer, buffer pH=7.4.
The next data set relates to Vero cells. Briefly: MTT cytotoxicity. It is filed as cell-based. The note with it: averages of at least three experiments; highest concentration assessed 75 μM.
[2] abbreviates: Measles morbillivirus, Table 1, piperidine series, read-out: EC50 (μM) (MV-Alaska) (CPE inhib.).
[3] abbreviates: Measles morbillivirus, read-out: EC50 (μM) (MV-Alaska) (CPE inhib.).
The mark [4] stands for this setting: Table 1, piperidine series, read-out: EC50 (μM) (MV-Alaska) (CPE inhib.).
Setting [5] is: Measles morbillivirus, Table 2, phenyl and acyclic series, read-out: EC50 (μM) (MV-Alaska) (CPE inhibition).

On to `COCOCC1CCCCN1S(=O)(=O)c1ccc(NC(=O)c2cc(C(F)(F)F)nn2C)cc1` (stereo not drawn) [Compound 1a, N-(4-((2-((methoxymethoxy)methyl)piperidin-1-yl)sulfonyl)phenyl)-1-methyl-3-(trifluoromethyl)-pyrazole-5-carboxamide], for which the “fold more potent than the corresponding 3-piperidine” value in the data set with MV-Alaska (MOM ether analogs, CPE assay) came to 2 fold. Besides, the EC50 – broadly, the concentration at which the effect is half-maximal – with MV-Alaska (setting [2]) turned out to be 1.5 µM. On to `COCOCC1CCCN(S(=O)(=O)c2ccc(NC(=O)c3cc(C(F)(F)F)nn3C)cc2)C1` (stereo not drawn) [Compound 1b, N-(4-((3-((methoxymethoxy)methyl)piperidin-1-yl)sulfonyl)phenyl)-1-methyl-3-(trifluoromethyl)-pyrazole-5-carboxamide], for which the concentration giving a half-maximal response (EC50) with MV-Alaska (setting [2]) was 3.8 µM. Consider `COCOCC1CCN(S(=O)(=O)c2ccc(NC(=O)c3cc(C(F)(F)F)nn3C)cc2)CC1` [Compound 1c, N-(4-((4-((methoxymethoxy)methyl)piperidin-1-yl)sulfonyl)phenyl)-1-methyl-3-(trifluoromethyl)-pyrazole-5-carboxamide], for which, in the data set on MV-Alaska (MOM ether analogs, CPE assay, versus 2-piperidine 1a), the “fold reduction of activity, 4-substituted derivative” value is reported as about 10 fold. Besides, the EC50 in the data set with MV-Alaska (setting [2]) was determined as 16 µM. In the case of `Cn1nc(C(F)(F)F)cc1C(=O)Nc1ccc(S(=O)(=O)N2CCCCC2CN2CCOCC2)cc1` (stereo not drawn) [Compound 2b, 1-methyl-N-(4-((2-(morpholinomethyl)piperidin-1-yl)sulfonyl)phenyl)-3-(trifluoromethyl)-pyrazole-5-carboxamide], the EC50 in the data set on MV-Alaska (setting [2]) was determined as 9.3 µM. On to `Cn1nc(C(F)(F)F)cc1C(=O)Nc1ccc(S(=O)(=O)N2CCCCC2CN=[N+]=[N-])cc1` (stereo not drawn) [Compound 2c], for which the EC50 in the data set with MV-Alaska (setting [2]) stood at 1.5 µM. As to `Cn1nc(C(F)(F)F)cc1C(=O)Nc1ccc(S(=O)(=O)N2CCCCC2CN)cc1` (stereo not drawn) [Compound 2d, N-(4-((2-(aminomethyl)piperidin-1-yl)sulfonyl)phenyl)-1-methyl-3-(trifluoromethyl)-pyrazole-5-carboxamide], in the data set on MV-Alaska (setting [3]), the concentration for a half-maximal effect (EC50) is 55 µM. As for `CC(=O)NCC1CCCCN1S(=O)(=O)c1ccc(NC(=O)c2cc(C(F)(F)F)nn2C)cc1` (stereo not drawn) [Compound 2e, N-(4-((2-(acetamidomethyl)piperidin-1-yl)sulfonyl)phenyl)-1-methyl-3-(trifluoromethyl)-pyrazole-5-carboxamide], in the data set with MV-Alaska (setting [2]), the concentration giving a half-maximal response (EC50) was 14 µM.

Take `CCOC(=O)/C=C/C1CCCCN1S(=O)(=O)c1ccc(NC(=O)c2cc(C(F)(F)F)nn2C)cc1` (stereo not drawn) [Compound 2g, ethyl 3-(1-((4-(1-methyl-3-(trifluoromethyl)-pyrazole-5-carboxamido)phenyl)sulfonyl)piperidin-2-yl)acrylate]: the “fold more active than the corresponding alcohols (2h and 2j)” value in the data set with MV-Alaska (CPE assay) was found to be 2 fold. Further, in the data set with MV-Alaska (setting [3]), the EC50 was 3.7 µM. On to `Cn1nc(C(F)(F)F)cc1C(=O)Nc1ccc(S(=O)(=O)N2CCCCC2/C=C/CO)cc1` (stereo not drawn) [Compound 2h, N-(4-((2-(3-hydroxypropyl-1-ene)piperidin-1-yl)sulfonyl)phenyl)-1-methyl-3-(trifluoromethyl)-pyrazole-5-carboxamide], for which the concentration giving a half-maximal response (EC50) with MV-Alaska (setting [2]) worked out at 6.8 µM.

Turning to `CCOC(=O)CCC1CCCCN1S(=O)(=O)c1ccc(NC(=O)c2cc(C(F)(F)F)nn2C)cc1` (stereo not drawn) [Compound 2i, ethyl 3-(1-((4-(1-methyl-3-(trifluoromethyl)-pyrazole-5-carboxamido)phenyl)sulfonyl)piperidin-2-yl)propanoate], in the data set on MV-Alaska (CPE assay), the “fold more active than the corresponding alcohols (2h and 2j)” value is recorded as 2 fold. Further, the EC50 with MV-Alaska (setting [2]) is 2.7 µM.

`Cn1nc(C(F)(F)F)cc1C(=O)Nc1ccc(S(=O)(=O)N2CCCCC2CCCO)cc1` (stereo not drawn) [Compound 2j, N-(4-((2-(3-hydroxypropyl)piperidin-1-yl)sulfonyl)phenyl)-1-methyl-3-(trifluoromethyl)-pyrazole-5-carboxamide]: the EC50 with MV-Alaska (setting [2]) is 6.7 µM.

On to `Cn1nc(C(F)(F)F)cc1C(=O)Nc1ccc(S(=O)(=O)N2CCCCC2CCO)cc1` (stereo not drawn) [Compound 2l, N-(4-((2-(2-hydroxyethyl)piperidin-1-yl)sulfonyl)phenyl)-1-methyl-3-(trifluoromethyl)-pyrazole-5-carboxamide], for which the “fold loss of activity compared to 2m” value with MV-Alaska (CPE assay, R versus S chirality) is on record as 3 fold. For the same compound, the EC50 in the data set on MV-Alaska (setting [4]) came to 8.3 µM.

With `Cn1nc(C(F)(F)F)cc1C(=O)Nc1ccc(S(=O)(=O)N2CCCCC2CCO)cc1` (stereo not drawn) [Compound 2m, N-(4-((2-(2-hydroxyethyl)piperidin-1-yl)sulfonyl)phenyl)-1-methyl-3-(trifluoromethyl)-pyrazole-5-carboxamide], the EC50 in the data set on MV-Alaska (setting [4]) worked out at 3.1 µM. In the case of `Cn1nc(C(F)(F)F)cc1C(=O)Nc1ccc(S(=O)(=O)N2CCCCC2CCN2CCOCC2)cc1` (stereo not drawn) [Compound 2n, 1-methyl-N-(4-((2-(2-morpholinoethyl)piperidin-1-yl)sulfonyl)phenyl)-3-(trifluoromethyl)-pyrazole-5-carboxamide], the EC50 with MV-Alaska (setting [2]) came out at 4.6 µM. In addition, the “Aqueous solubility (μg/ml) Test” value in data set [1] came out at 55 µg/mL. The CC50 – broadly, the concentration at which the toxic effect on the cells reaches its halfway point – with Vero cells was over 75 µM. For `CCOC(=O)COCC1CCCCN1S(=O)(=O)c1ccc(NC(=O)c2cc(C(F)(F)F)nn2C)cc1` (stereo not drawn) [Compound 2p, ethyl 2-((1-((4-(1-methyl-3-(trifluoromethyl)-pyrazole-5-carboxamido)phenyl)sulfonyl)piperidin-2-yl)methoxy)acetate], the concentration giving a half-maximal response (EC50) with MV-Alaska (setting [2]) is 25 µM. `Cn1nc(C(F)(F)F)cc1C(=O)Nc1ccc(S(=O)(=O)N2CCCCC2COCCO)cc1` (stereo not drawn) [Compound 2q, N-(4-((2-((2-hydroxyethoxy)methyl)piperidin-1-yl)sulfonyl)phenyl)-1-methyl-3-(trifluoromethyl)-pyrazole-5-carboxamide]: in the data set with MV-Alaska (setting [2]), the EC50 stood at 8.3 µM.

Turning to `COc1ccccc1S(=O)(=O)c1ccc(NC(=O)c2cc(C(F)(F)F)nn2C)cc1` [Compound 3b, N-(4-((2-methoxyphenyl)sulfonyl)phenyl)-1-methyl-3-(trifluoromethyl)-pyrazole-5-carboxamide], the EC50 in the data set on MV-Alaska (setting [5]) stood at 3.1 µM. In the data set with Vero cells, this compound returned a CC50 of over 75 µM. For the compound `CC(=O)Oc1ccccc1S(=O)(=O)c1ccc(NC(=O)c2cc(C(F)(F)F)nn2C)cc1` [Compound 3d, 2-((4-(1-methyl-3-(trifluoromethyl)-pyrazole-5-carboxamido)phenyl)sulfonyl)phenyl acetate], the concentration giving a half-maximal response (EC50) with MV-Alaska (setting [5]) was 4.5 µM. As to `Cn1nc(C(F)(F)F)cc1C(=O)Nc1ccc(S(=O)(=O)c2ccccc2CO)cc1` [Compound 3f, N-(4-((2-(hydroxymethyl)phenyl)sulfonyl)phenyl)-1-methyl-3-(trifluoromethyl)-pyrazole-5-carboxamide], the 50% effective concentration (EC50) in the data set with MV-Alaska (setting [5]) is 3.1 µM; in the data set with MV-Alaska (Measles morbillivirus, Table 3, averages of four experiments, concentration range 2.3-75 μM, read-out: EC50 (μM) (MV-Alaska) CPE inhibition) it was 3.1 µM. The “Aqueous solubility (μg/ml) Test” value in data set [1] was determined as 46 µg/mL. In the data set on Vero cells, this compound came in with a cytotoxic concentration (CC50) of over 75 µM.
